Test results: PubChem BioAssay (NCI)
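96-well plates; 48 h exposure; 5 concentrations. Endpoints by linear interpolation between flanking doses. Not reached: highest tested concentration assigned. GI50 = concentration required for 50% inhibition of growth. At the TGI there is no net growth.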

Assays:
Experiment in all cases: growth of human tumour cells (NCI), 48 h
[1] = system: HCT-116 colon
[2] = system: SF-268 CNS
[3] = system: M14 melanoma
[4] = system: RPMI-8226 leukemia
[5] = system: SK-OV-3 ovarian
[6] = system: RXF 393 renal
[7] = system: NCI-H226 lung
[8] = system: SNB-19 CNS
[9] = system: HOP-62 NSCLC
[10] = system: MOLT-4 leukemia
[11] = system: HOP-92 NSCLC
[12] = system: PC-3 prostate
[13] = system: HT29 colon
[14] = system: SR leukemia
[15] = system: DU-145 prostate
[16] = system: CAKI-1 renal
[17] = system: HL-60(TB) leukemia
[18] = system: NCI/ADR-RES ovarian
[19] = system: A549 NSCLC
[20] = system: U251 CNS
[21] = system: A498 renal
[22] = system: OVCAR-4 ovarian
[23] = system: HS 578T breast
[24] = system: MDA-MB-231 breast
[25] = system: SF-539 CNS
[26] = system: UACC-62 melanoma
[27] = system: SK-MEL-5 melanoma
[28] = system: NCI-H522 lung
[29] = system: OVCAR-3 ovarian
[30] = system: LOX IMVI melanoma
[31] = system: EKVX NSCLC
[32] = system: K-562 leukemia
[33] = system: SNB-75 CNS
[34] = system: UACC-257 melanoma
[35] = system: UO-31 renal
[36] = system: 786-0 renal
[37] = system: HCT-15 colon
[38] = system: OVCAR-5 ovarian
[39] = system: SN12C renal
[40] = system: MCF7 breast
[41] = system: ACHN renal
[42] = system: MDA-MB-435
[43] = system: SK-MEL-28 melanoma
[44] = system: SW-620 colon
[45] = system: SF-295 CNS
[46] = system: OVCAR-8 ovarian
[47] = system: IGROV1 ovarian
[48] = system: BT-549 breast
[49] = system: COLO 205 colon
[50] = system: NCI-H23 lung
[51] = system: SK-MEL-2 melanoma
[52] = system: NCI-H460 lung
[53] = system: MALME-3M melanoma
[54] = system: CCRF-CEM leukemia
[55] = system: TK-10 renal
[56] = system: HCC-2998 colon
[57] = system: KM12 colon

## Clc1ccc(-c2nc(-c3ccccc3)cn3ccnc23)cc1
[1]
  GI50: 6.39 µM
  TGI: 21.5 µM
[2]
  GI50: 10.6 µM
  TGI: 33 µM
[3]
  GI50: 10.6 µM
  TGI: 27.4 µM
[4]
  GI50: 3.44 µM
  TGI: 31.2 µM
[5]
  GI50: 32 µM
  TGI: > 100 µM
[6]
  GI50: 2.72 µM
  TGI: 28.6 µM
[7]
  GI50: 74.7 µM
  TGI: > 100 µM
[8]
  GI50: 25.6 µM
  TGI: > 100 µM
[9]
  GI50: 16.1 µM
  TGI: 52.5 µM
[10]
  GI50: 5.89 µM
  TGI: > 100 µM
[11]
  GI50: 11.1 µM
  TGI: 32.7 µM
[12]
  GI50: 14.2 µM
  TGI: 53.7 µM
[13]
  GI50: 7.45 µM
  TGI: 56.7 µM
[14]
  GI50: 0.627 µM
  TGI: > 100 µM
[15]
  GI50: 11.9 µM
  TGI: 34.9 µM
[16]
  GI50: 1.49 µM
  TGI: 17.7 µM
[17]
  GI50: 5.05 µM
  TGI: > 100 µM
[18]
  GI50: 6.53 µM
  TGI: 25.9 µM
[19]
  GI50: 11 µM
  TGI: 29 µM
[20]
  GI50: 6.61 µM
  TGI: 19.9 µM
[21]
  GI50: 0.836 µM
  TGI: 16.1 µM
[22]
  GI50: 14.6 µM
  TGI: 51.3 µM
[23]
  TGI: 17 µM
[24]
  GI50: 12.3 µM
  TGI: 55.5 µM
[25]
  GI50: 11.7 µM
  TGI: 31.8 µM
[26]
  GI50: 17.7 µM
  TGI: 70 µM
[27]
  GI50: 7.3 µM
  TGI: 27.2 µM
[28]
  GI50: > 100 µM
  TGI: > 100 µM
[29]
  GI50: 1.82 µM
  TGI: 16.8 µM
[30]
  GI50: 5.1 µM
  TGI: 19.5 µM
[31]
  GI50: 10 µM
  TGI: 48.8 µM
[32]
  GI50: 2.65 µM
  TGI: > 100 µM
[33]
  GI50: 13 µM
  TGI: 72 µM
[34]
  GI50: 20 µM
  TGI: 46.5 µM
[35]
  GI50: 20.2 µM
  TGI: > 100 µM
[36]
  GI50: 14 µM
  TGI: 37.3 µM
[37]
  GI50: 1.8 µM
  TGI: 18 µM
[38]
  GI50: 15.7 µM
  TGI: 44.7 µM
[39]
  GI50: 21.3 µM
  TGI: > 100 µM
[40]
  GI50: 7.16 µM
  TGI: > 100 µM
[41]
  GI50: 11.4 µM
  TGI: 26.1 µM
[42]
  GI50: 1.43 µM
  TGI: 7.52 µM
[43]
  GI50: 14.9 µM
  TGI: 58.3 µM
[44]
  GI50: 4.75 µM
  TGI: 41.1 µM
[45]
  GI50: 3.1 µM
  TGI: 16.7 µM
[46]
  GI50: 20.6 µM
  TGI: 57.2 µM
[47]
  GI50: 15.5 µM
  TGI: > 100 µM
[48]
  GI50: 11.3 µM
  TGI: 34.3 µM
[49]
  GI50: 18.6 µM
  TGI: > 100 µM
[50]
  GI50: 12.5 µM
  TGI: 36.4 µM
[51]
  GI50: 53.4 µM
  TGI: > 100 µM
[52]
  GI50: 20.2 µM
  TGI: > 100 µM

## N=c1c2ccccc2nc2oc3ccccc3n12
[1]
  TGI: > 100 µM
[2]
  TGI: 28 µM
[4]
  TGI: > 100 µM
[5]
  TGI: > 100 µM
[53]
  TGI: > 100 µM
[8]
  TGI: > 100 µM
[9]
  TGI: 88.2 µM
[11]
  TGI: 80.6 µM
[12]
  TGI: > 100 µM
[13]
  TGI: > 100 µM
[16]
  TGI: > 100 µM
[17]
  TGI: > 100 µM
[18]
  TGI: > 100 µM
[19]
  TGI: > 100 µM
[21]
  TGI: > 100 µM
[54]
  TGI: > 100 µM
[22]
  TGI: 61.4 µM
[23]
  TGI: 60.3 µM
[25]
  TGI: > 100 µM
[26]
  TGI: > 100 µM
[27]
  TGI: 69.5 µM
[30]
  TGI: > 100 µM
[31]
  TGI: 29.9 µM
[32]
  TGI: > 100 µM
[34]
  TGI: > 100 µM
[35]
  TGI: > 100 µM
[37]
  TGI: > 100 µM
[38]
  TGI: > 100 µM
[39]
  TGI: > 100 µM
[40]
  TGI: > 100 µM
[41]
  TGI: > 100 µM
[42]
  TGI: > 100 µM
[44]
  TGI: > 100 µM
[45]
  TGI: > 100 µM
[46]
  TGI: > 100 µM
[47]
  TGI: > 100 µM
[48]
  TGI: > 100 µM
[55]
  TGI: 87.3 µM
[49]
  TGI: > 100 µM
[50]
  TGI: > 100 µM
[56]
  TGI: > 100 µM
[51]
  TGI: > 100 µM

## COC(=O)[C@@H](C)C[C@H](Cc1ccccc1)NC(=O)c1nc([C@@H](C[C@H](C(C)C)N(C)C(=O)[C@@H](NC(=O)[C@H]2CCCCN2C)C(C)C)OC(C)=O)sc1C(C)C
[1]
  GI50: < 0.00333 µM
  TGI: 0.476 µM
[2]
  GI50: 0.0184 µM
  TGI: 7.72 µM
[3]
  GI50: 0.00338 µM
  TGI: 0.0127 µM
[4]
  GI50: < 0.00333 µM
  TGI: 6.96 µM
[5]
  GI50: < 0.00333 µM
  TGI: 33.1 µM
[53]
  GI50: 0.0424 µM
  TGI: 5.81 µM
[6]
  GI50: < 0.00333 µM
  TGI: 7.78 µM
[57]
  GI50: < 0.00333 µM
  TGI: 4.2 µM
[7]
  GI50: 0.0122 µM
  TGI: 1.37 µM
[8]
  GI50: < 0.00333 µM
  TGI: > 33.3 µM
[9]
  GI50: 0.0129 µM
  TGI: 10.4 µM
[10]
  GI50: 0.0139 µM
  TGI: 14.5 µM
[11]
  GI50: 0.219 µM
  TGI: > 21.6 µM
[12]
  GI50: < 0.00333 µM
  TGI: > 33.3 µM
[13]
  GI50: < 0.00333 µM
  TGI: 0.583 µM
[14]
  GI50: < 0.00333 µM
  TGI: > 15 µM
[15]
  GI50: < 0.00333 µM
  TGI: 0.434 µM
[16]
  GI50: 0.00483 µM
  TGI: 5.53 µM
[17]
  GI50: < 0.00333 µM
  TGI: < 0.00333 µM
[18]
  GI50: 0.216 µM
  TGI: > 7.8 µM
[19]
  GI50: 0.0187 µM
  TGI: 15.7 µM
[20]
  GI50: 0.012 µM
  TGI: 8.51 µM
[21]
  GI50: < 0.00333 µM
  TGI: 0.00776 µM
[54]
  GI50: 0.00793 µM
  TGI: > 33.3 µM
[22]
  GI50: 0.0103 µM
  TGI: > 33.3 µM
[23]
  GI50: 0.00503 µM
  TGI: 1.34 µM
[24]
  GI50: 0.00902 µM
  TGI: 2.2 µM
[25]
  GI50: 0.007 µM
  TGI: 0.0242 µM
[26]
  GI50: < 0.00333 µM
  TGI: 32.6 µM
[27]
  GI50: < 0.00333 µM
  TGI: 0.0449 µM
[28]
  GI50: < 0.00333 µM
  TGI: 0.055 µM
[29]
  GI50: < 0.00333 µM
  TGI: 0.0703 µM
[30]
  GI50: 0.00791 µM
  TGI: 3.93 µM
[31]
  GI50: 0.0135 µM
  TGI: > 33.3 µM
[32]
  GI50: < 0.00333 µM
  TGI: 5.43 µM
[33]
  GI50: 0.00388 µM
  TGI: 9.38 µM
[35]
  GI50: 0.0154 µM
  TGI: 5.37 µM
[36]
  GI50: < 0.00333 µM
  TGI: 1.06 µM
[37]
  GI50: 0.0335 µM
  TGI: 4.43 µM
[38]
  GI50: 0.0136 µM
  TGI: 16 µM
[39]
  GI50: 0.00765 µM
  TGI: 4.51 µM
[40]
  GI50: < 0.00333 µM
  TGI: > 25.6 µM
[41]
  GI50: < 0.00333 µM
  TGI: 7.06 µM
[44]
  GI50: < 0.00333 µM
  TGI: > 25.7 µM
[45]
  GI50: < 0.00333 µM
  TGI: 0.276 µM
[46]
  GI50: 0.00792 µM
  TGI: 8.62 µM
[47]
  GI50: < 0.00333 µM
  TGI: > 11.9 µM
[48]
  GI50: < 0.00333 µM
  TGI: 0.0837 µM
[55]
  GI50: 0.117 µM
  TGI: 14.4 µM
[49]
  GI50: 0.00522 µM
  TGI: 0.0401 µM
[50]
  GI50: 0.00965 µM
  TGI: 16.1 µM
[56]
  GI50: < 0.00333 µM
  TGI: 1.44 µM
[51]
  GI50: 0.00503 µM
  TGI: 5.73 µM
[52]
  GI50: 0.0045 µM
  TGI: 3.52 µM
